This passage reports ED50, IC50 and melting point results from patent US7320980B2, “Substituted pyrido(1,2-a)pyrimidines and their use as NOS inhibitors” (Gruenenthal GmbH, priority 2003, dated 2008).

For orientation: ED50 means the dose that gives a 50% effect, or the effect in half of the subjects. Lower therefore signals greater potency. Broadly, the pIC50 is −log10 of the IC50, conventionally taken in molar units. By melting point is commonly meant the temperature, or range, at which the solid turns liquid.

pIC50: −log10 of the molar value. Counter-ions that a name gives are not always drawn.

One data set relates to formaldehyde-induced nociception. As to the kind of experiment: Formaldehyde test (rat), second phase. It counts as in vivo. Conditions: iv, male Sprague-Dawley rats, second (late) phase of formaldehyde test, pain rate change relative to control. Here is the method: The investigations for determining the antinociceptive action of the compounds used according to the invention of the general formula II were carried out by the formaldehyde test on male rats (Sprague-Dawley, 150-170 g, Charles River).
In the formaldehyde test, a distinction is drawn between the first (early) phase (0-15 min after formaldehyde injection) and the second (later) phase (15-60 min after formaldehyde injection), as described in D. Dubuisson, S. G. Dennis, Pain 4, 161-174 (1977). […]
A nociceptive reaction was induced in the freely mobile test animals by a single, subcutaneous formaldehyde injection (50 μl, 5 wt. %) into the dorsal side of the rear hind paw, the reaction being classed according to one of the following behavioural parameters: lifting and holding up the affected paw (score 1), shaking or twitching (score 2), licking and biting (score 3). The differential behaviour induced by the formaldehyde injection was recorded by observing the rats in the late phase of the formaldehyde test and assigned a variable weighting in the evaluation. Normal behaviour, in which the rat places an even load on all four paws, was recorded as a score of 0. […] The nociceptive behaviour was calculated as a “pain rate” (PR). […]
The analgesic action of the compounds of the general formula II used according to the invention was determined as described above.
`CC1=CC2=NCC(C(=O)c3ccc4ccccc4c3)CN2C=C1` (stereo not drawn) [Example 1, 3-(2′-Naphthoyl)-3,4-dihydro-2H-8-methylpyrido[1,2-a]pyrimidinium perchlorate] returned an ED50 of 7.27 mg/kg.

The next data set has as its target T1, NO synthase (Rattus norvegicus, UniProt P29476).
T1 construct: the supernatant was then decanted off and frozen in portions at −80° C., discarding the precipitate; from tissue; host or cells: rat cerebellum, 20,000 g supernatant of homogenate
As to the kind of experiment: NOS / HTS-NOS assay (radioactive arginine conversion, rat cerebellum enzyme preparation). The class given is biochemical. Conditions: rat cerebellum supernatant enzyme, [3H]-arginine substrate, 25° C.; read-out: NOS Arg IC50. An excerpt:
This assay makes it possible to determine the percentage inhibition of NO synthase (hereinafter referred to as the enzyme) by a compound of the general formula II used according to the invention, optionally in the form of one of the pure stereoisomers thereof, in particular enantiomers or diastereomers, the racemates thereof or in the form of a mixture of stereoisomers, in particular the enantiomers or diastereomers, in any desired mixing ratio, or in each case in the form of the free base thereof or in the form of the physiologically acceptable salt thereof, in particular hydroperchlorate salt or in each case in the form of the solvate thereof, in particular hydrate (hereinafter referred to as the active ingredient), by measuring enzyme activity on exposure to the compound. The enzyme is here mixed under suitable conditions together with radioactively labelled arginine and the particular active ingredient. After termination of the NO formation reaction at a predetermined time, the quantity of unconverted arginine is directly or indirectly determined.
This assay may be carried out at follows: • (a) Incubation of the enzyme with labelled arginine as the substrate in a reaction vessel, • (b) Separation of the labelled arginine from the labelled citrulline optionally arising as a product of the enzymatic reaction at a time at which the concentration of citrulline is rising, • (c) Measurement of the quantity of arginine separated in each case.
Separation is performed by means of a filter plate membrane.
Radioactive arginine is used as the substrate in this HTS-NOS assay. Depending on the type of microtitre plate (MTP), the assay volume may be selected in the range between 25 μl and 250 μl. Depending on the enzyme source used, cofactors and coenzymes are added. The batches are incubated in this microtitre plate (assay MTP) according to step (a) at room temperature and, depending on the enzyme activity used (units), lasts between 5 and 60 minutes. On completion of incubation (step (a)), the plate is placed in a cell harvester, which is equipped with an MTP which has a cation exchange membrane as a filter bottom (filter MTP). All the batches from the assay MTP are transferred into this filter MTP and suction filtered through a cation exchange filter plate, a paper filter loaded with phosphate groups. The filter MTP is then washed with buffer or water. This procedure binds the remaining substrate arginine onto the cation exchanger, while the enzymatically formed radioactive citrulline is quantitatively eluted. Once the filter MTP has been dried and scintillation liquid (Ready Protein, Beckmann Coulter GmbH, Krefeld, Germany) added, the bound arginine can be counted in the scintillation counter (Packard TRI-CARB Liquid Scintillation Analyzer 2000 CA, Packard Instrument, Meriden, Conn. 06450, USA). Low radioactivity indicates an uninhibited enzyme reaction. An inhibited enzyme reaction means that the radioactive arginine has not been converted. It may be concluded from this that there is then a high level of radioactivity on the filter.
The NOS and HTS-NOS assays were performed as described above.
Rat cerebella were used as the starting tissue. The animals were stunned and killed, the brain tissue, the cerebellum, was dissected out, 1 ml of enzyme preparation buffer (4° C.) was added per cerebellum, and the tissue was disrupted for 1 min at 6000 rpm in a Polytron homogeniser. The mixture was then centrifuged at 4° C. for 15 min at 20,000 g, and the supernatant was then decanted off and frozen in portions at −80° C., discarding the precipitate. The frozen supernatant was subsequently thawed for the assay and pipetted out onto a microtitre plate.
96-well MTPs with a well capacity of <250 μl were used.
Once pipetting was complete, a lid was placed on this MTP (assay MTP) and incubation performed at 25° C. (room temperature [RT]) for 5-60 min, depending on the quantity and activity of the enzyme used (see in this connection Table 1). […]
For the molecule `CC1=CC2=NCC(C(=O)c3ccc4ccccc4c3)CN2C(C)=C1` (stereo not drawn) [Example 2, 3-(2′-Naphthoyl)-3,4-dihydro-2H-6,8-dimethylpyrido[1,2-a]pyrimidinium perchlorate], the pIC50 was 5.17.

Regarding `CC1=CC2=NCC(C(=O)c3ccc(F)cc3)CN2C=C1` (stereo not drawn) [Example 4, 3-(4′-Fluorobenzoyl)-3,4-dihydro-2H-8-methylpyrido[1,2-a]pyrimidinium perchlorate], the pIC50 was 5.07. The same measure, in the same setting: in the case of `CC1=CC2=NCC(C(=O)c3ccc4ccccc4c3)CN2C=C1` (stereo not drawn) [Example 1, 3-(2′-Naphthoyl)-3,4-dihydro-2H-8-methylpyrido[1,2-a]pyrimidinium perchlorate] it was 5.85; in that of `CC1=CC2=NCC(C(=O)c3ccccc3)CN2C(C)=C1` (stereo not drawn) [Example 6, 3-Benzoyl-3,4-dihydro-2H-6,8-dimethylpyrido[1,2-a]pyrimidinium perchlorate], 5.08; in that of `CC1=CC2=NCC(C(=O)c3ccc(-c4ccccc4)cc3)CN2C=C1` (stereo not drawn) [Example 8, 3-(4′-Biphenylcarbonyl)-3,4-dihydro-2H-8-methylpyrido[1,2-a]pyrimidinium perchlorate], 4.89.

With `CC1=CC=CC2=NCC(C(=O)c3ccc(-c4ccccc4)cc3)CN12` (stereo not drawn) [Example 9, 3-(4′-Biphenylcarbonyl)-3,4-dihydro-2H-6-methylpyrido[1,2-a]pyrimidinium perchlorate], the pIC50 is 5.12. As for `CC1=CC2=NCC(C(=O)c3ccc(Br)cc3)CN2C=C1` (stereo not drawn) [Example 3, 3-(4′-Bromobenzoyl)-3,4-dihydro-2H-8-methylpyrido[1,2-a]pyrimidinium perchlorate], the pIC50 is 4.85. Same read-out and setting: in the case of `CC1=CC2=NCC(C(=O)c3ccccc3)CN2C=C1` (stereo not drawn) [Example 5, 3-Benzoyl-3,4-dihydro-2H-8-methylpyrido[1,2-a]pyrimidinium perchlorate] it was 5.04; in that of `CC1=CC2=NCC(C(=O)c3ccc(Cl)cc3)CN2C=C1` (stereo not drawn) [Example 7, 3-(4′-Chlorobenzoyl)-3,4-dihydro-2H-8-methylpyrido[1,2-a]pyrimidinium perchlorate], 5.19.

System in another data set: not given
Experiment: not given
Details: not given
Turning to `CC1=CC2=NCC(C(=O)c3ccc(Br)cc3)CN2C=C1` (stereo not drawn) (as salt: perchlorate) [Example 3, 3-(4′-Bromobenzoyl)-3,4-dihydro-2H-8-methylpyrido[1,2-a]pyrimidinium perchlorate], the melting point fell in the range of 158 to 161 °C.

With `CC1=CC2=NCC(C(=O)c3ccccc3)CN2C(C)=C1` (stereo not drawn) (as salt: perchlorate) [Example 6, 3-Benzoyl-3,4-dihydro-2H-6,8-dimethylpyrido[1,2-a]pyrimidinium perchlorate], the melting point was 78 °C. In turn, `CC1=CC2=NCC(C(=O)c3ccc(-c4ccccc4)cc3)CN2C=C1` (stereo not drawn) (as salt: perchlorate) [Example 8, 3-(4′-Biphenylcarbonyl)-3,4-dihydro-2H-8-methylpyrido[1,2-a]pyrimidinium perchlorate] showed a melting point of 111 °C. Still for that read-out and setting: the same measure for `CC1=CC2=NCC(C(=O)c3ccc(Cl)cc3)CN2C=C1` (stereo not drawn) (as salt: perchlorate) [Example 7, 3-(4′-Chlorobenzoyl)-3,4-dihydro-2H-8-methylpyrido[1,2-a]pyrimidinium perchlorate]: 123 to 125 °C; for `CC1=CC2=NCC(C(=O)c3ccccc3)CN2C=C1` (stereo not drawn) (as salt: perchlorate) [Example 5, 3-Benzoyl-3,4-dihydro-2H-8-methylpyrido[1,2-a]pyrimidinium perchlorate]: greater than 290 °C.
